We go through 12 substances from patent US20140038884A1, “ANTIVIRAL PEPTIDES” (priority 2011, published 2014).

The test system of one data set is HIV-1. As to conditions: for influence on the expression level of Ag p24: subfragments containing the GGNK sequence.
Data set [1] is described as follows: Isoelectric point (Ip) of the peptides. It counts as physicochemical.
Data set [2] relates to PE/CA PJ15 cells. The data set is described as follows: Cytotoxicity test, Neutral Red Uptake (NRU) method. As to conditions: 50 microM, +24 and +48 hours from administration. It counts as cell-based. On the procedure:
FIG. 3 (a, b, c). Cytotoxicity tests according to Neutral Red Uptake (NRU) method, performed on the three peptides: 1932 (SEQ ID NO 1), 2733 (SEQ ID NO 2) and 1413 (SEQ ID NO 3), at the two concentrations of 5 and 50 microM at +24 and +48 hours from administration. Therefore, concentrations near (5 microM) to or markedly higher (50 microM) than those employed for carrying out the ex-vivo and in vitro tests were used. Cells used are a tumour cell line denominated PE/CA PJ15. Positive control (denoted in the legends by ctrl+), used at a sublethal concentration of 10 microM, is a commercial proapoptotic peptide, Catalog #62206 (Anaspec-USA).
Treated cells were subjected to MTT assay at +24 and +48 hours from peptide inoculation. […] After a 3-hour incubation at 38° C., formazan crystals were solubilized with HCl solution in isopropanol (0.04 N, 200 μl) and the stained solution was measured by a microplate reader (Packard Spectracount™, Packard BioScience Company, Meriden U.S.A.) with a 570 nm filter. […] In the MTT citotoxicity test at +24 and +48 hours, averages of the values obtained by photometer reading of the data related to tested peptides were compared. […] From a determination of the amount of Neutral Red retained in the cells exposed thereto (in comparison with the control) the relative toxicity of the chemical substances at issue can be assessed. […]

The subject of data set [3] is PE/CA PJ15 cells. The data set is described as follows: Cytotoxicity test, MTT method. It is filed as cell-based. Conditions: 15 microM, +48 hours from administration. Here is the method: FIG. 4 (a, b, c). Cytotoxicity tests according to the MTT method (see protocols) performed on the three peptides: 1932 (SEQ ID NO 1); 2733 (SEQ ID NO 2) and 1413 (SEQ ID NO 3), and at three concentrations of […] at +24 and +48 hours from administration. There were used concentrations near (5 microM) to, or greater (15, 50 microM) than those used in the ex-vivo and in vitro tests, where average concentration of the three peptides is of about 3.65 microM. Cells used are a tumour cell line denominated PE/CA PJ15. Positive control (denoted in the legends by ctrl+), used at a sublethal concentration of 10 microM, is a commercial proapoptotic peptide, Catalog #62206 (Anaspec-USA).
Treated cells were subjected to MTT assay at +24 and +48 hours from peptide inoculation. […] After a 3-hour incubation at 38° C., formazan crystals were solubilized with HCl solution in isopropanol (0.04 N, 200 μl) and the stained solution was measured by a microplate reader (Packard Spectracount™, Packard BioScience Company, Meriden U.S.A.) with a 570 nm filter. […] In the MTT citotoxicity test at +24 and +48 hours, averages of the values obtained by photometer reading of the data related to tested peptides were compared. […]
(In general: Tetrazolium dyes change colour on reduction, which living cells bring about.)

The test system of the next data set is HIV-1 R5. As to conditions: ex vivo.
Another data set relates to HIV. The data set can be described thus: Peptide stability, duration of effect on HIV replication in in vitro assays. It is filed as cell-based. On the procedure:
Current drugs in use for the therapy against HIV infections and AIDS, like e.g. the HAART mixture, are administered in daily doses, whereas the action of the peptides of SEQ ID NO 1, 2, and 3 in in vitro assays highlights a duration of the effect on HIV replication of at least four days.
The effect was verified in two in vitro experimental protocols envisaging: • a treatment of the cells with the virus (adsorption phase), washing, inoculation of the peptide in culture and analysis of viral replication over time; • exposure of the cells to the peptide, adsorption of the cells to the virus, washing, and analysis of viral replication over time.

The subject of another data set is HIV strain BaL. The data set is described as follows: In vitro exogenous infection of healthy-donor PBMCs with HIV strain BaL, p24 ELISA. Conditions: at 12 days, 10 microg/ml, regardless of protocol, FIG. 2. (In general: In an ELISA, binding on a coated surface is turned into a signal by an enzyme label.)
A further data set has as its system HIV strain IIIB. The data set is described as follows: In vitro exogenous infection of healthy-donor PBMCs with HIV strain IIIB, p24 ELISA.

Like-named read-outs stand apart in the source and are kept apart here. Ends that are not written are not given here.

Consider “APPGARPLPGPPPPGPPPPGP (listed as Sus sp.) [Peptide 7, Peptide of porcine origin]”, for which the “activities A) HIV-1 activation ex vivo, B) inhibitory activity, C)” value in the data set with HIV-1 was “do not exhibit any of the activities listed at A), B) and C)”. Besides, the “Ip (isoelectric point)” value in data set [1] is 9.79.

“APPGARPPPGPPPPGPPPPGP (listed as Sus sp.) [Peptide 4, Peptide of porcine origin]”: the “activities A) HIV-1 activation ex vivo, B) inhibitory activity, C)” value with HIV-1 was “do not exhibit any of the activities listed at A), B) and C)”. For the same substance, the “Ip (isoelectric point)” value in data set [1] came out at 9.79.

For the substance “APPGARPPPPPPPPADQPQQGP (Sus sp) [Peptide 6, Peptide of porcine origin]”, the “activities A) HIV-1 activation ex vivo, B) inhibitory activity, C)” value with HIV-1 is “do not exhibit any of the activities listed at A), B) and C)”. Also, the “Ip (isoelectric point)” value in data set [1] stood at 5.88.

For “DKPKKKPPPPAGPPPPPPPPPGPPPPGP [peptide 2733]”, in the data set with PE/CA PJ15 cells [2], the “toxicity with respect to the control (NRU)” value is on record as “slightly more toxic with respect to the control”.

With “GPPPPGKPQ (listed as Homo sapiens) [Peptide 1e]”, the “activities A) HIV-1 activation ex vivo, B) inhibitory activity, C)” value in the data set on HIV-1 was “do not exhibit any of the activities listed at A), B) and C)”. In addition, in data set [1], the “Ip (isoelectric point)” value came to 8.75.

Turning to “GPPPQGGN (listed as Homo sapiens) [Peptide 1d]”, the “activities A) HIV-1 activation ex vivo, B) inhibitory activity, C)” value with HIV-1 is “do not exhibit any of the activities listed at A), B) and C)”. Moreover, the “Ip (isoelectric point)” value in data set [1] is listed as 5.52.

On to “GPPPQGGNKPQ (listed as Homo sapiens) [Peptide 1b]”, for which, in the data set on HIV-1, the “activities A) HIV-1 activation ex vivo, B) inhibitory activity, C)” value is “exhibit none of the activities listed in points A), B) and C)”; the “influence on the expression level of Ag p24” value (from here on “influence”) is given as “in no way influences the expression level of Ag p24”. Besides, the “Ip (isoelectric point)” value in data set [1] was found to be 8.75.

As to “GPPPQGGNKPQGPPPG (listed as Homo sapiens) [Peptide 1c]”, in the data set on HIV-1, the “activities A) HIV-1 activation ex vivo, B) inhibitory activity, C)” value is “exhibit none of the activities listed in points A), B) and C)”; the “influence” value was “in no way influences the expression level of Ag p24”. The “Ip (isoelectric point)” value in data set [1] worked out at 8.75.

For “GPPPQGGNKPQGPPPPG (listed as Homo sapiens) [Peptide 1a]”, in the data set on HIV-1, the “activities A) HIV-1 activation ex vivo, B) inhibitory activity, C)” value was “exhibit none of the activities listed in points A), B) and C)”; the “influence” value is on record as “in no way influences the expression level of Ag p24”. In addition, in data set [1], the “Ip (isoelectric point)” value amounted to 8.75.

GPPPQGGNKPQGPPPPGKPQ [peptide 1932]: the “toxicity with respect to the control (NRU)” value with PE/CA PJ15 cells [2] was “slightly more toxic with respect to the control”. Besides, the “toxicity with respect to the control (MTT)” value in the data set with PE/CA PJ15 cells [3] is listed as “slightly toxic with respect to the control”.

Turning to “RPPPGPPPPGPPPGP-OH [peptide 1413, RPPPGPPPPGPPPGP]”, the p24 values amounted to 191 picograms/ml in the data set with HIV-1 R5 (after 5 days of culture, control cells 76 picograms/ml) and 67 pg/mL with HIV-1 R5 (day 10, control cells 79 picograms/ml). For the same substance, the “duration of the effect on HIV replication” value in the data set with HIV is “at least four”. Moreover, in the data set on HIV-1 (versus Con1 of U.S. Pat. No. 5,981,720, no direct comparison), the “inhibitory activity relative to Con1” value worked out at 130 times. The “inhibition of viral replication” value in the data set on HIV strain BaL is given as “effective in inhibiting viral replication”; with HIV strain IIIB (+8 days of culture, 10 μg/ml), “relevant effect of inhibition of viral replication”. Besides, the “Ip (isoelectric point)” value in data set [1] stood at 9.75. Also, the “virus replication over the time considered (p24 antigen)” value in the data set with HIV strain IIIB (peptide 10 microg/ml, FIG. 1) is “almost equal to zero”. Moreover, in the data set with HIV strain IIIB (until day 12, FIG. 1), the “persistence of inhibitory effect” value was “remained unaltered until day 12”.

Regarding “RSPFFDL (listed as Sus sp.) [Peptide 5, Peptide of porcine origin]”, the “activities A) HIV-1 activation ex vivo, B) inhibitory activity, C)” value in the data set with HIV-1 is “do not exhibit any of the activities listed at A), B) and C)”. Further, the “Ip (isoelectric point)” value in data set [1] came out at 5.84.
